Measured values taken from US11117885B2, “Compounds having estrogen receptor alpha degradation activity and uses thereof” (ACCUTAR BIOTECHNOLOGY INC., priority 2018, dated 2021).

Biological target: T1, ERα (Homo sapiens, UniProt P03372)
T1 sequence (P03372 1-595): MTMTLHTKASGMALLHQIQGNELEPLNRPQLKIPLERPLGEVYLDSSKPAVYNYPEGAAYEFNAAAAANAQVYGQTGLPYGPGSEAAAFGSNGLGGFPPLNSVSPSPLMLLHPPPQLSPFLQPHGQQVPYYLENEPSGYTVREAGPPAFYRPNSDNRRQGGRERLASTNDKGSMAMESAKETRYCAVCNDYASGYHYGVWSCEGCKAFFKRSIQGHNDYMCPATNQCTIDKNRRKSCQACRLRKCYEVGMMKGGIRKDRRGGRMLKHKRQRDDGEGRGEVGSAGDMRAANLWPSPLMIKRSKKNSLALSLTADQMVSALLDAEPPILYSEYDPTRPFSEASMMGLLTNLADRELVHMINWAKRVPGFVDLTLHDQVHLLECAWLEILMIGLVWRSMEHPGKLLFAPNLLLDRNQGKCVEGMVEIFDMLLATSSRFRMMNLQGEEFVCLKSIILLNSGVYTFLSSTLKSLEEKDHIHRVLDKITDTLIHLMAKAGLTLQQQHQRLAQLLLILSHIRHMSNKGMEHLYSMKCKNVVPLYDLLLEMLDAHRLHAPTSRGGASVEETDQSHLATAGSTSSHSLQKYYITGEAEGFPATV
Experiment: ERα degradative activity in T47D cells (western blot, densitometry)
Format: cell-based
Parameters: endogenous in cells; host or cells: T47D
Conditions: T47D cell line; concentration at which 50% of the target protein (ERα) is degraded
Description: T47D cells were plated in 24-well plates at 1.5×10^5 cells/well in the RPMI growth medium containing 10% FBS and 1× Penicillin Streptomycin, and then incubated at 37° C. overnight. The following day, the test compound was administered to the cells by using 1000× compound stock solution prepared in DMSO at various concentrations. After administration of the compound, the cells were then incubated at 37 C for various period of treatment time, e.g., as indicated in the figures.
Upon completion, the cells were washed with PBS and protein was collected in Laemmli sample buffer (1×; VWR International). Protein was isolated from cell lysate (approximately 25 μg) by SDS-PAGE and transferred to nitrocellulose membranes. Non-specific binding was blocked by incubation with blocking buffer (5% milk in Tris-buffered saline with 0.1% Tween 20 (“TBS-T”)) at rt for 60 minutes.
The membrane was then incubated with primary antibodies (mouse anti-ERα (1:500, Santa Cruz), mouse anti-GAPDH (1:5,000, Santa Cruz), or mouse anti-actin (1:4,000, Santa Cruz)) overnight at 4° C., followed by washing (3 times) with TBS-T, and then incubation with horseradish peroxidase-conjugated rabbit anti-mouse IgG (1:5,000) for 60 minutes. After the TBS-T washes, blots were developed with an enhanced chemiluminescence kit (ThermoFisher Scientific) and the bands were imaged and quantified by densitometry (Bio-Rad).
The DC50 values (i.e., the concentration of test compound at which 50% of the target protein is degraded) was calculated for various compounds of the present disclosure and are shown in the Table 3, below. A corresponds to a DC50 value less than or equal to 1.5 μM; B corresponds to a DC50 value greater than 1.5 μM and less than 3 μM; and C corresponds to a DC50 value greater than 3 μM.

| DC50 | SMILES |
| --- | --- |
| > 3 µM | CC/C(=C(\c1ccccc1)c1ccc(OCCN(C)C(=O)CCOCCNc2cccc3c2C(=O)N(C2CCC(=O)NC2=O)C3=O)cc1)c1ccccc1 (stereo not shown) [Compound 8, (Z)-3-(2-((2-(2,6-dioxopiperidin-3-yl)-1,3-dioxoisoindolin-4-yl)amino)ethoxy)-N-(2-(4-(1,2-diphenylbut-1-en-1-yl)phenoxy)ethyl)-N-methylpropanamide] |
| > 3 µM | CC/C(=C(\c1ccccc1)c1ccc(OCCN(C)C(=O)CCOCCOCCNc2cccc3c2C(=O)N(C2CCC(=O)NC2=O)C3=O)cc1)c1ccccc1 (stereo not shown) [Compound 15, (Z)-3-(2-(2-((2-(2,6-Dioxopiperidin-3-yl)-1,3-dioxoisoindolin-4-yl)amino)ethoxy)ethoxy)-N-(2-(4-(1,2-diphenylbut-1-en-1-yl)phenoxy)ethyl)-N-methylpropanamide] |
| ≤ 1.5 µM | CC/C(=C(\c1ccccc1)c1ccc(OCCN(C)C(=O)CCOCCOCCOCCOCCNc2cccc3c2C(=O)N(C2CCC(=O)NC2=O)C3=O)cc1)c1ccccc1 (stereo not shown) [Compound 54, (Z)-1-((2-(2,6-dioxopiperidin-3-yl)-1,3-dioxoisoindolin-4-yl)amino)-N-(2-(4-(1,2-diphenylbut-1-en-1-yl)phenoxy)ethyl)-N-methyl-3,6,9,12-tetraoxapentadecan-15-amide] |
| ≤ 1.5 µM | CC/C(=C(\c1ccccc1)c1ccc(OCCN(C)C(=O)CCOCCOCCOCCOCCOCCNc2cccc3c2C(=O)N(C2CCC(=O)NC2=O)C3=O)cc1)c1ccccc1 (stereo not shown) [Compound 64, (Z)-1-((2-(2,6-dioxopiperidin-3-yl)-1,3-dioxoisoindolin-4-yl)amino)-N-(2-(4-(1,2-diphenylbut-1-en-1-yl)phenoxy)ethyl)-N-methyl-3,6,9,12,15-pentaoxaoctadecan-18-amide] |
| > 3 µM | CC/C(=C(\c1ccccc1)c1ccc(OCCN(C)C(=O)CNc2cccc3c2C(=O)N(C2CCC(=O)NC2=O)C3=O)cc1)c1ccccc1 (stereo not shown) [Compound 88, (Z)-2-((2-(2,6-dioxopiperidin-3-yl)-1,3-dioxoisoindolin-4-yl)amino)-N-(2-(4-(1,2-diphenylbut-1-en-1-yl)phenoxy)ethyl)-N-methylacetamide] |
| ≤ 1.5 µM | CC/C(=C(\c1ccccc1)c1ccc(OCCN(C)C(=O)CCNc2cccc3c2C(=O)N(C2CCC(=O)NC2=O)C3=O)cc1)c1ccccc1 (stereo not shown) [Compound 89, (Z)-3-((2-(2,6-dioxopiperidin-3-yl)-1,3-dioxoisoindolin-4-yl)amino)-N-(2-(4-(1,2-diphenylbut-1-en-1-yl)phenoxy)ethyl)-N-methylpropanamide] |
| ≤ 1.5 µM | CC/C(=C(\c1ccccc1)c1ccc(OCCN(C)C(=O)CCCNc2cccc3c2C(=O)N(C2CCC(=O)NC2=O)C3=O)cc1)c1ccccc1 (stereo not shown) [Compound 108, (Z)-4-((2-(2,6-dioxopiperidin-3-yl)-1,3-dioxoisoindolin-4-yl)amino)-N-(2-(4-(1,2-diphenylbut-1-en-1-yl)phenoxy)ethyl)-N-methylbutanamide] |
| ≤ 1.5 µM | CC/C(=C(\c1ccccc1)c1ccc(OCCN(C)C(=O)CCCCCNc2cccc3c2C(=O)N(C2CCC(=O)NC2=O)C3=O)cc1)c1ccccc1 (stereo not shown) [Compound 120, (Z)-6-((2-(2,6-dioxopiperidin-3-yl)-1,3-dioxoisoindolin-4-yl)amino)-N-(2-(4-(1,2-diphenylbut-1-en-1-yl)phenoxy)ethyl)-N-methylhexanamide] |
| 1.5 to 3 µM | CC/C(=C(\c1ccccc1)c1ccc(OCCN(C)C(=O)CCCCCCNc2cccc3c2C(=O)N(C2CCC(=O)NC2=O)C3=O)cc1)c1ccccc1 (stereo not shown) [Compound 126, (Z)-7-((2-(2,6-dioxopiperidin-3-yl)-1,3-dioxoisoindolin-4-yl)amino)-N-(2-(4-(1,2-diphenylbut-1-en-1-yl)phenoxy)ethyl)-N-methylheptanamide] |
| 1.5 to 3 µM | CC/C(=C(\c1ccccc1)c1ccc(OCCN(C)C(=O)CCCCCCCNc2cccc3c2C(=O)N(C2CCC(=O)NC2=O)C3=O)cc1)c1ccccc1 (stereo not shown) [Compound 143, (Z)-8-((2-(2,6-dioxopiperidin-3-yl)-1,3-dioxoisoindolin-4-yl)amino)-N-(2-(4-(1,2-diphenylbut-1-en-1-yl)phenoxy)ethyl)-N-methyloctanamide] |
